From the supplement of paper PMC10307832

How the values were obtained:
Assay in all cases: relative viability (nuclei count vs DMSO), 5 days (fraction); higher = more cells survive
Motesanib + Alpelisib = compound: CC1(C)CNc2cc(NC(=O)c3cccnc3NCc3ccncc3)ccc21 [Motesanib] + Cc1nc(NC(=O)N2CCC[C@H]2C(N)=O)sc1-c1ccnc(C(C)(C)C(F)(F)F)c1 [Alpelisib] (partner 2 µM)
Outline: (§1)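 Each reported value is a median over duplicate plates. It expresses relative viability: treated-well nuclei count divided by vehicle-well nuclei count. Lung cancer cell lines in 1536-well plates were dosed by pin tool a day after seeding, alone with one drug or with a fixed anchor-drug dose plus five library-drug doses (not always all listed) in √10 steps, and nuclei were counted after 5 days.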

Motesanib + Dasatinib = compound: CC1(C)CNc2cc(NC(=O)c3cccnc3NCc3ccncc3)ccc21 [Motesanib] + Cc1nc(Nc2ncc(C(=O)Nc3c(C)cccc3Cl)s2)cc(N2CCN(CCO)CC2)n1 [Dasatinib] (partner 0.075 µM)
Outline: as §1

[1] = compound: C[C@@]1(C(=O)Nc2ccc(F)nc2)CCCN1c1nc(Nc2cc(C3CC3)n[nH]2)c2cccn2n1 + COc1cc2c(Oc3ccc(NC(=O)C4(C(=O)Nc5ccc(F)cc5)CC4)cc3F)ccnc2cc1OCCCN1CCOCC1 [Foretinib] (partner 0.25 µM)
Outline: as §1

[2] = compound: C[C@@]1(C(=O)Nc2ccc(F)nc2)CCCN1c1nc(Nc2cc(C3CC3)n[nH]2)c2cccn2n1 + C[C@@H](Oc1cc(-c2cnn(C3CCNCC3)c2)cnc1N)c1c(Cl)ccc(F)c1Cl [Crizotinib] (partner 1 µM)
Outline: as §1

| Cell Line | relative viability (Motesanib + Alpelisib; first compound 0.03162 µM) | relative viability (Motesanib + Alpelisib; first compound 0.1 µM) | relative viability (Motesanib + Alpelisib; first compound 0.3162 µM) | relative viability (Motesanib + Alpelisib; first compound 1 µM) | relative viability (Motesanib + Dasatinib; first compound 0.01 µM) | relative viability (Motesanib + Dasatinib; first compound 0.03162 µM) | relative viability (Motesanib + Dasatinib; first compound 0.1 µM) | relative viability (Motesanib + Dasatinib; first compound 0.3162 µM) | relative viability (Motesanib + Dasatinib; first compound 1 µM) | relative viability ([1]; first compound 0.04 µM) | relative viability ([1]; first compound 0.1265 µM) | relative viability ([1]; first compound 0.4 µM) | relative viability ([1]; first compound 1.265 µM) | relative viability ([2]; first compound 0.04 µM) | relative viability ([2]; first compound 0.1265 µM) | relative viability ([2]; first compound 0.4 µM) | relative viability ([2]; first compound 1.265 µM) | relative viability (Motesanib + Alpelisib; first compound 0.01 µM) |
| --- | --- | --- | --- | --- | --- | --- | --- | --- | --- | --- | --- | --- | --- | --- | --- | --- | --- | --- |
| LCLC-103H | 0.947 | 1.06 | 0.931 | 0.987 | 0.432 | 0.444 | 0.44 | 0.504 | 0.52 | 0.597 | 0.491 | 0.422 | 0.637 | 1.07 | 1.01 | 0.904 | 1.04 | – |
| LK-2 | 0.962 | 1.44 | 1.05 | 1.19 | 0.322 | 0.212 | – | 0.379 | 0.245 | 0.731 | 0.945 | 0.671 | 0.979 | 0.208 | 0.335 | 0.224 | 0.159 | 1.06 |
| LOU-NH91 | 0.759 | 0.708 | 0.707 | 0.802 | 0.515 | 0.536 | 0.621 | 0.594 | 0.586 | 0.938 | 0.94 | 0.86 | 0.948 | 0.736 | 0.812 | 0.667 | 0.725 | 0.746 |
| LU99A | 0.555 | 0.511 | 0.488 | 0.559 | 0.636 | 0.453 | 0.681 | 0.606 | 0.524 | 0.602 | 0.467 | 0.478 | 0.432 | 0.391 | 0.415 | 0.39 | 0.233 | 0.465 |
| LXF-289 | 1.05 | 1.06 | 1.05 | 1.04 | 0.258 | 0.148 | 0.257 | 0.256 | 0.267 | 0.949 | 0.945 | 0.937 | 0.991 | 0.837 | 0.806 | 0.751 | 0.714 | 0.983 |
| NCI-H23 | 0.481 | – | 0.639 | 0.603 | 0.881 | 0.737 | 0.662 | 0.892 | 0.746 | 0.591 | 0.539 | 0.622 | 0.914 | 0.49 | 0.292 | 0.2 | 0.35 | 0.798 |
| NCI-H322M | 0.737 | 0.837 | 0.751 | 0.778 | 0.234 | 0.216 | 0.268 | 0.26 | 0.262 | 0.907 | 0.608 | 0.62 | 0.655 | 1.04 | 0.75 | 0.613 | 1.15 | 0.713 |
| NCI-H358 | 0.938 | 0.88 | 0.839 | 1.02 | 0.14 | 0.155 | 0.133 | 0.2 | 0.158 | 0.471 | 0.385 | 0.202 | 0.183 | 0.474 | 0.394 | 0.241 | 0.216 | 0.949 |
| NCI-H441 | 0.998 | 1.03 | 0.636 | 0.847 | 0.594 | 0.627 | 0.604 | 0.613 | 0.642 | 0.631 | 0.46 | 0.599 | 0.707 | 0.603 | 0.704 | 0.553 | 0.527 | 0.699 |
| NCI-H460 | 0.495 | 0.484 | 0.424 | 0.478 | 0.406 | 0.481 | 0.525 | 0.63 | 0.626 | 1.06 | 0.939 | 1.03 | 0.87 | 0.985 | 0.699 | 0.639 | 0.331 | 0.567 |
| NCI-H520 | 0.899 | 0.879 | 0.871 | 0.768 | 0.208 | 0.196 | 0.21 | 0.226 | 0.218 | 1.01 | 0.612 | 0.796 | 0.768 | 0.802 | 0.499 | 0.618 | 0.636 | 0.864 |
| NCI-H596 | 0.417 | 0.496 | 0.542 | 0.498 | 0.651 | 0.543 | 0.534 | 0.563 | 0.53 | 0.731 | 0.752 | 0.649 | 0.972 | 1.05 | 0.984 | 0.857 | 1.06 | 0.489 |
| NCI-H647 | 1.21 | 1.1 | 1.33 | 1.09 | 0.194 | 0.169 | 0.151 | 0.191 | 0.221 | 1.18 | 1.08 | 0.886 | 1.17 | 1.07 | 1.03 | 0.841 | 0.447 | 1.02 |
| NCI-H650 | 0.85 | 1.14 | 1.09 | 1.08 | 0.399 | – | 0.442 | 0.501 | 0.444 | 1.02 | 0.738 | 0.819 | 0.782 | 0.764 | 0.449 | 0.489 | 0.47 | 0.925 |
| NCI-H661 | 0.608 | 0.683 | 0.641 | 0.882 | 0.818 | 0.842 | 0.833 | 0.977 | 0.861 | 1.04 | 1.03 | 1.06 | 0.936 | 0.983 | – | 1.01 | – | 0.356 |
